The term IC50 denotes the midpoint of a concentration-inhibition curve.

Molecules are shown by their SMILES.

This is an account of results in ChEMBL document CHEMBL5344478, “Cytochrome bd oxidase: an emerging anti-tubercular drug target” (RSC Med Chem, 2024).

For the test, the system named is Mycobacterium tuberculosis variant bovis. In words: Antibacterial activity against Mycobacterium bovis BCG assessed as reduction in bacterial growth. The test is classed as functional, organism-based.

`CC(C)(C)c1ccc(CCNc2ncnc3ccsc23)cc1`: the IC50 is 5800 nM. The same measure for `Fc1ccc2c(NCCc3ccc(OC(F)(F)F)cc3)ncnc2c1`: 800 nM. The same measure for `CC(C)(C)c1ccc(CCNc2ncnc3ccccc23)cc1`: 800 nM.
